From patent US4160829A, “Antibacterial 1,2,4-oxadiazolylacetamido cephalosporins” (Gist-Brocades N.V., priority 1972, dated 1979)
In brackets after ≈: the same amount, converted by molar mass. Read-outs that look alike come from different tables or passages of the source.

What was measured:
Prot.mirab. L 93 = assay: agar serial dilution test; type: cell-based, Proteus mirabilis; conditions: Proteus mirabilis; agar serial dilution, 24 hours, 37° C.; read-out: minimal inhibitory concentration (MIC)
Past.multo. A 723 = assay: agar serial dilution test; type: cell-based, Pasteurella multocida; conditions: Pasteurella multocida; agar serial dilution, 24 hours, 37° C.; read-out: minimal inhibitory concentration (MIC)
Strep.haem. A 266 = assay: agar serial dilution test; type: cell-based, Streptococcus haemolyticus; conditions: Streptococcus; agar serial dilution, 24 hours, 37° C.; read-out: minimal inhibitory concentration (MIC)
Strep. faec. L 80 = assay: agar serial dilution test; type: cell-based, Streptococcus faecalis; conditions: Enterococcus faecalis; agar serial dilution, 24 hours, 37° C.; read-out: minimal inhibitory concentration (MIC)
Bac.Subt.ATCC 6633 = assay: agar serial dilution test; type: cell-based, Bacillus subtilis; conditions: Bacillus subtilis, ATCC6633, 24 h, agar serial dilution, 24 hours, 37° C.; read-out: minimal inhibitory concentration (MIC)
Salm.typh. R 127 = assay: micro serial dilution test; type: cell-based; conditions: micro serial dilution (in brackets), about 18 hours, 30° C. or 37° C.; read-out: minimal inhibitory concentration (MIC)
Source text: Two drops of a stock solution of the test compound (antibiotic) in a known concentration were brought into the first hole of a test plate with 9 numbered holes with a sterile Pasteur pipette. After rinsing this pipette three times with a physiological NaCl-solution, two drops of a stock solution of the test organism in a culture medium were brought in all the holes except for hole 8. In the first hole, the solution of the tested compound had been half diluted, then by stirring the liquid in the first hole and adding two drops of this mixture to the second hole and so on until hole 8, dilutions of the test compound solution were obtained in geometrical progression. The hole 9 contained no antibiotic and served for checking the growth of the testogranism in a blank medium. The test plate was incubated at 30° C. or 37° C. for about 18 hours.

Staph.aureus A 2000 [1] = assay: agar serial dilution test; type: cell-based, Staphylococcus aureus; conditions: Staphylococcus aureus, A2000, 24 h, agar serial dilution, 24 hours, 37° C.; read-out: minimal inhibitory concentration (MIC)
Kleb.pneum. A 809 [2] = assay: micro serial dilution test; type: cell-based; conditions: Klebsiella pneumoniae; micro serial dilution (in brackets), about 18 hours, 30° C. or 37° C.; read-out: minimal inhibitory concentration (MIC)
Prot.rettg. A 821 = assay: agar serial dilution test; type: cell-based, Proteus rettgeri; conditions: Providencia rettgeri, 24 h, read-out: minimal inhibitory concentration (MIC)
acute toxicity in mice = conditions: mouse, in vivo, ip; mice (Swiss), one intraperitoneal administration
Method: (a) For sodium 7-[(3-methyl-1,2,4-oxadiazol-5-yl)-acetamido]-cephalosporanate (as prepared in Example 10), the acute toxicity was determined in mice (Swiss) with one intraperitoneal administration. The LD50 appeared to be >6000 mg/kg (Cephalotin-LD50 >6000 mg/kg).

Klebsiella pneumoniae = assay: protection test; type: in vivo; conditions: ip
Escherichia coli = assay: protection test; type: in vivo; conditions: ip
Pseud.aerug. 2396 = assay: agar serial dilution test; type: cell-based; conditions: agar serial dilution, 24 hours, 37° C.; read-out: minimal inhibitory concentration (MIC)
Prot.morg. 2241 = assay: agar serial dilution test; type: cell-based; conditions: 24 h, agar serial dilution, 24 hours, 37° C.; read-out: minimal inhibitory concentration (MIC)
[3] = test system: penicillin resistant Staphylococcus aureus strain; assay: protection test; type: in vivo; conditions: sc
Source text: The compound may preferably be used parenterally.

Proteus rettgeri = assay: protection test; type: in vivo; conditions: Providencia rettgeri, sc
Staph.aureus A 321 = assay: agar serial dilution test; type: cell-based, Staphylococcus aureus; conditions: Staphylococcus aureus, A321, 24 h, agar serial dilution, 24 hours, 37° C.; read-out: minimal inhibitory concentration (MIC)
Dipl.pneum. L 54 = assay: agar serial dilution test; type: cell-based, Diplococcus pneumoniae; conditions: Streptococcus pneumoniae; agar serial dilution, 24 hours, 37° C.; read-out: minimal inhibitory concentration (MIC)
Shig.equir. T 3 = assay: agar serial dilution test; type: cell-based; conditions: 24 h, 37° C., read-out: minimal inhibitory concentration (MIC)
Salm.dubl. P 43 = assay: agar serial dilution test; type: cell-based, Salmonella dublin; conditions: Salmonella enterica; agar serial dilution, 24 hours, 37° C.; read-out: minimal inhibitory concentration (MIC)
[4] = test system: Staph. aureus pen.resistant; assay: protection test; type: in vivo; conditions: Staphylococcus aureus, sc
Pseud.aerug. H 10 = assay: agar serial dilution test; type: cell-based; conditions: agar serial dilution, 24 hours, 37° C.; read-out: minimal inhibitory concentration (MIC)
[5] = test system: Pseud.aerug. Wyeth A 1058; assay: agar serial dilution test; type: cell-based; conditions: agar serial dilution, 24 hours, 37° C.; read-out: minimal inhibitory concentration (MIC)
Kleb.pneum. A 809 [6] = assay: agar serial dilution test; type: cell-based, Klebsiella pneumoniae; conditions: Klebsiella pneumoniae; agar serial dilution, 24 hours, 37° C.; read-out: minimal inhibitory concentration (MIC)
Prot.mirab. H 3 = assay: agar serial dilution test; type: cell-based, Proteus mirabilis; conditions: Proteus mirabilis
Bruc.melit. A 488 = assay: microbe, parasite or virus in culture; type: cell-based; conditions: Brucella melitensis, 24 h, read-out: minimal inhibitory concentration (MIC)
Staph.aureus A 355 [7] = assay: agar serial dilution test; conditions: Staphylococcus aureus, A355, 24 h, read-out: minimal inhibitory concentration (MIC), agar serial dilution, 24 hours, 37° C.; penicillinase-producing strain
Esch.coli U 20 = assay: agar serial dilution test; type: cell-based, Escherichia coli; conditions: Escherichia coli, U20; agar serial dilution, 24 hours, 37° C.; read-out: minimal inhibitory concentration (MIC)
Staph.aureus A 2001 [8] = assay: agar serial dilution test; type: cell-based, Staphylococcus aureus; conditions: Staphylococcus aureus, A2001, 24 h, agar serial dilution, 24 hours, 37° C.; read-out: minimal inhibitory concentration (MIC)
Staph.aureus A 2001 [9] = assay: micro serial dilution test; type: cell-based, Staphylococcus aureus; conditions: Staphylococcus aureus, A2001, 18 h, micro serial dilution (in brackets), about 18 hours, 30° C. or 37° C.; read-out: minimal inhibitory concentration (MIC)
Prot.mirab. A 1200 [10] = assay: micro serial dilution test; type: cell-based; conditions: Proteus mirabilis; micro serial dilution (in brackets), about 18 hours, 30° C. or 37° C.; read-out: minimal inhibitory concentration (MIC)
Proteus rettgeri A 821 = assay: protection test; type: in vivo; conditions: s.c.
Haem.Suis A 2096 = assay: micro serial dilution test; type: cell-based; conditions: micro serial dilution (in brackets), about 18 hours, 30° C. or 37° C.; read-out: minimal inhibitory concentration (MIC)
Prot.mirab. A 1200 [11] = assay: agar serial dilution test; type: cell-based, Proteus mirabilis; conditions: Proteus mirabilis, 24 h, agar serial dilution, 24 hours, 37° C.; read-out: minimal inhibitory concentration (MIC)
Bruc. Suis A 2126 = assay: agar serial dilution test; type: cell-based; conditions: Brucella suis, 24 h, read-out: minimal inhibitory concentration (MIC)
Salm.typh. R 172 = assay: agar serial dilution test; type: cell-based; conditions: 24 h, read-out: minimal inhibitory concentration (MIC)
[12] = test system: Klebsiella pneumoniae A 265; assay: protection test; type: in vivo; conditions: i.p.
Sarc. lutea ATCC 9341 = assay: micro serial dilution test; type: cell-based; conditions: Micrococcus luteus, ATCC9341; micro serial dilution (in brackets), about 18 hours, 30° C. or 37° C.; read-out: minimal inhibitory concentration (MIC)
Strep.haem A 1088 = assay: agar serial dilution test; type: cell-based, Streptococcus haemolyticus; conditions: Streptococcus, A1088, 24 hours, 37° C., read-out: minimal inhibitory concentration (MIC)
Proteus mirabilis A 1200 = assay: protection test; type: in vivo; conditions: s.c.; for ED50: protection test
Staph.aureus A 2000 [13] = assay: micro serial dilution test; type: cell-based, Staphylococcus aureus; conditions: Staphylococcus aureus, A2000, 18 h, micro serial dilution (in brackets), about 18 hours, 30° C. or 37° C.; read-out: minimal inhibitory concentration (MIC)
Staph.aureus A 355 [14] = assay: micro serial dilution test; type: cell-based, Staphylococcus aureus; conditions: Staphylococcus aureus, A355; micro serial dilution (in brackets), about 18 hours, 30° C. or 37° C.; penicillinase-producing strain; read-out: minimal inhibitory concentration (MIC)
Actinob.equ. T 3 = assay: agar serial dilution test; type: cell-based; conditions: 24 hours, 37° C., read-out: minimal inhibitory concentration (MIC)

CC(=O)OCC1=C(C(=O)O)N2C(=O)[C@@H](NC(=O)Cc3cccs3)[C@H]2SC1 [Cephalotin, reference compound]
MIC (Prot.mirab. L 93): 0.6 µg/mL (≈ 1.51 µM)
MIC (Past.multo. A 723): 0.7 µg/mL (≈ 1.77 µM)
MIC (Strep.haem. A 266): 0.06 µg/mL (≈ 0.151 µM)
MIC (Strep. faec. L 80): 25 µg/mL (≈ 63.1 µM)
MIC (Bac.Subt.ATCC 6633): 0.12 µg/mL (≈ 0.303 µM)
MIC (Salm.typh. R 127): 3 µg/mL (≈ 7.57 µM)
MIC (Staph.aureus A 2000 [1]): 0.5 µg/mL (≈ 1.26 µM)
MIC (Kleb.pneum. A 809 [2]): 0.37 µg/mL (≈ 0.933 µM)
MIC (Prot.rettg. A 821): 12.5 µg/mL (≈ 31.5 µM)
LD50 (acute toxicity in mice): > 6000 mg/kg
ED50 (Klebsiella pneumoniae): 0.8 mg/kg
ED50 (Escherichia coli): > 300 mg/kg
MIC (Pseud.aerug. 2396): > 100 µg/mL
MIC (Prot.morg. 2241): > 100 µg/mL
ED50 [3]: 1.3 mg/kg
ED50 (Proteus rettgeri): 4.34 mg/kg
MIC (Staph.aureus A 321): 0.5 µg/mL (≈ 1.26 µM)
MIC (Dipl.pneum. L 54): 0.5 µg/mL (≈ 1.26 µM)
MIC (Shig.equir. T 3): 1.5 µg/mL (≈ 3.78 µM)
MIC (Salm.dubl. P 43): 1.5 µg/mL (≈ 3.78 µM)
ED50 [4]: 37.6 mg/kg
MIC (Pseud.aerug. H 10): > 100 µg/mL
MIC [5]: > 100 µg/mL
MIC (Kleb.pneum. A 809 [6]): 0.7 µg/mL (≈ 1.77 µM)
MIC (Prot.mirab. H 3; 24 h, read-out: minimal inhibitory concentration (MIC), agar serial dilution, 24 hours, 37° C.): 12.5 µg/mL (≈ 31.5 µM)
MIC (Bruc.melit. A 488): 6 µg/mL (≈ 15.1 µM)
MIC (Staph.aureus A 355 [7]): 0.5 µg/mL (≈ 1.26 µM)
MIC (Esch.coli U 20): 3 µg/mL (≈ 7.57 µM)

Cn1nnnc1SCC1=C(C(=O)O)N2C(=O)[C@@H](NC(=O)Cc3nc(CC(=O)O)no3)[C@H]2SC1 [Compound F, disodium 7-[(3-carboxymethyl-1,2,4-oxadiazol-5-yl)-acetamido]-3[1-methyl-tetrazol-5-yl-mercaptomethyl] 3-cephem-4-carboxylate]
MIC (Prot.mirab. L 93): 1.5 µg/mL
MIC (Past.multo. A 723): 1 µg/mL
MIC (Staph.aureus A 2001 [8]): 6 µg/mL
MIC (Strep. faec. L 80): > 100 µg/mL
MIC (Staph.aureus A 2001 [9]): 3.7 µg/mL
MIC (Bac.Subt.ATCC 6633): 1.5 µg/mL
MIC (Staph.aureus A 2000 [1]): 6 µg/mL
MIC (Prot.rettg. A 821; agar serial dilution, 24 hours, 37° C.): 0.25 µg/mL
MIC (Prot.mirab. A 1200 [10]): 1.2 µg/mL
ED50 (Proteus rettgeri A 821; Providencia rettgeri, A821, sc, protection test): 0.023 mg/kg
Potency ratio (Proteus rettgeri A 821; reference Cefalotin): > 5
MIC (Haem.Suis A 2096): 0.23 µg/mL
MIC (Prot.mirab. A 1200 [11]): 3 µg/mL
MIC (Bruc. Suis A 2126): 1 µg/mL
MIC (Pseud.aerug. 2396): 100 µg/mL
MIC (Prot.morg. 2241): 25 µg/mL
MIC (Salm.typh. R 172): 0.75 µg/mL
ED50 ([12]; Klebsiella pneumoniae, A265, ip, protection test): 16 mg/kg
Potency ratio ([12]; reference Cefalotin): 5,7
MIC (Sarc. lutea ATCC 9341): 3.7 µg/mL
MIC (Staph.aureus A 321): 3 µg/mL
MIC (Dipl.pneum. L 54): 1 µg/mL
MIC (Salm.dubl. P 43): 0.5 µg/mL
MIC (Strep.haem A 1088): 3 µg/mL
MIC (Pseud.aerug. H 10): 100 µg/mL
MIC [5]: 100 µg/mL
MIC (Kleb.pneum. A 809 [6]): 0.5 µg/mL
ED50 (Proteus mirabilis A 1200; Proteus mirabilis, A1200, sc, read-out: ED50): 2.2 mg/kg
ED50 (Proteus mirabilis A 1200): 1,35 mg/kg
Potency ratio (Proteus mirabilis A 1200; reference Cefalotin): 6,9
Potency ratio (Proteus mirabilis A 1200; reference Cefazolin): 6,5
MIC (Prot.mirab. H 3; agar serial dilution, 24 hours, 37° C., read-out: minimal inhibitory concentration (MIC)): 1.5 µg/mL
MIC (Staph.aureus A 2000 [13]): 4 µg/mL
MIC (Staph.aureus A 355 [14]): 6 µg/mL
MIC (Actinob.equ. T 3): 0.5 µg/mL
MIC (Staph.aureus A 355 [7]): 6 µg/mL
MIC (Esch.coli U 20): 0.75 µg/mL
